Measured values published in US9206226B2, “Non-ionic acid-labile surfactants and methods of use” (Protea Biosciences, Inc., priority 2011, dated 2015).

Molecular target: bovine serum albumin (BSA) (Bos taurus, UniProt P02769)
Test: MALDI-TOF mass spectra of BSA with surfactant, intact and acid-degraded
Conditions: for BSA MALDI signal after surfactant degradation: degraded about 30 minutes in 1% TFA at pH 2.5
From the text: The various embodiments of non-ionic acid-labile surfactants and methods of use described herein may be better understood when read in conjunction with the following representative examples. The following examples are included for purposes of illustration and not limitation. MALDI-TOF spectra were acquired using an ABI 4800 mass spectrometer in the linear mode.
Referring to FIGS. 2A-C, 0.1% N-[2,2-Bis(pentyloxy)propan-1-aminocarbonyl]-β-maltosylamine was mixed with bovine serum albumin (BSA) in water. The samples were spotted onto a MALDI pre-spotted target with CHCA MALDI matrix using C8 reversed phase tips. FIG. 2A includes a mass spectra of 20 pmol BSA in water. BSA was detected at m/z 22344, m/z 33480, and m/z 66854. FIG. 2B includes a mass spectra of 20 pmol BSA dissolved in 0.1% N-[2,2-Bis(pentyloxy)propan-1-aminocarbonyl]-β-maltosylamine. […] FIG. 2C includes a mass spectra of 20 pmol BSA in 0.1% N-[2,2-Bis(pentyloxy)propan-1-aminocarbonyl]-β-maltosylamine after being degraded for about thirty (30) minutes in 1% TFA at pH 2.5. BSA was detected at m/z 22212, m/z 33309, and m/z 66460.
Referring to FIGS. 3A-C, 1% N-[2,2-Bis(pentyloxy)propan-1-aminocarbonyl]-β-maltosylamine was mixed with bovine serum albumin (BSA) in water. The samples were spotted onto a MALDI pre-spotted target with CHCA MALDI matrix using C8 reversed phase tips. FIG. 3A includes a mass spectra of 20 pmol BSA in water. BSA was detected at m/z 22344, m/z 33480, and m/z 66854. FIG. 3B includes a mass spectra of 20 pmol BSA dissolved in 1% N-[2,2-Bis(pentyloxy)propan-1-aminocarbonyl]-β-maltosylamine. […] FIG. 3C includes a mass spectra of 20 pmol BSA in 1% N-[2,2-Bis(pentyloxy)propan-1-aminocarbonyl]-β-maltosylamine after being degraded for about thirty (30) minutes in 1% TFA at pH 2.5. BSA was detected at m/z 22260, m/z 33377, and m/z 66527.
Referring to FIGS. 5A-C, 0.1% N-[2,2-Bis(hexyloxy)propan-1-aminocarbonyl]-β-maltosylamine was mixed with BSA. The samples were spotted onto a MALDI pre-spotted target with CHCA MALDI matrix using C8 reversed phase tips. FIG. 5A includes a mass spectra of 20 pmol BSA in water. BSA was detected at m/z 22344, m/z 33480, and m/z 66854. FIG. 5B includes a mass spectra of 20 pmol BSA dissolved in 0.1% N-[2,2-Bis(hexyloxy)propan-1-aminocarbonyl]-β-maltosylamine. […] FIG. 5C includes a mass spectra of 20 pmol BSA in 0.1% N-[2,2-Bis(phexyloxy)propan-1-aminocarbonyl]-β-maltosylamine after being degraded for about thirty (30) minutes in 1% TFA at pH 2.5. BSA was detected at m/z 22197, m/z 33284, and m/z 66405.

[1] = 20 pmol BSA dissolved in 0.1% surfactant

bovine serum albumin (BSA), sequence (P02769 25-607): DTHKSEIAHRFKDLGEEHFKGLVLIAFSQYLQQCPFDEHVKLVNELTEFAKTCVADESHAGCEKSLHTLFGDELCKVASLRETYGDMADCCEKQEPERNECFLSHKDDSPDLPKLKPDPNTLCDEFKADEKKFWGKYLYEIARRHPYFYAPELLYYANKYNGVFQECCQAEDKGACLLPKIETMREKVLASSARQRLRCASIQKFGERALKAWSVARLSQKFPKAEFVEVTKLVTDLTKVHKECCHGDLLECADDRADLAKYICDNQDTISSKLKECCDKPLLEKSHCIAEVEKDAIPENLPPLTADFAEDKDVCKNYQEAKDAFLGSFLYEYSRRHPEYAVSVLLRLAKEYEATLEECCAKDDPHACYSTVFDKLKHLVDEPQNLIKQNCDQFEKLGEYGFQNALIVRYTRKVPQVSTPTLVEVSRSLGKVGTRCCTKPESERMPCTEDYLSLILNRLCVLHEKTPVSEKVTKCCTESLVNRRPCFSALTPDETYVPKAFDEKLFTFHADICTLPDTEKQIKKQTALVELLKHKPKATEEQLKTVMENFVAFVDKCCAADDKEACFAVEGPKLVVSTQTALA

Structure (SMILES)	BSA MALDI signal, intact surfactant [1]	BSA MALDI signal, intact surfactant (20 pmol BSA dissolved in 1% surfactant)	BSA MALDI signal after surfactant degradation (0.1% surfactant)	BSA MALDI signal after surfactant degradation (1% surfactant)
CCCCCOC(C)(CNC(=O)NC1OC(CO)C(OC2OC(CO)C(O)C(O)C2O)C(O)C1O)OCCCCC (stereo not drawn) [N-[2,2-Bis(pentyloxy)propan-1-aminocarbonyl]-β-maltosylamine]	no signal from the BSA was detected	no signal from the BSA was detected	a signal from the BSA was detected when the surfactant was degraded	a signal from the BSA was detected when the surfactant was degraded
CCCCCCOC(C)(CNC(=O)NC1OC(CO)C(OC2OC(CO)C(O)C(O)C2O)C(O)C1O)OCCCCCC (stereo not drawn) [N-[2,2-Bis(hexyloxy)propan-1-aminocarbonyl]-β-maltosylamine]	no signal from the BSA was detected	–	a signal from the BSA was detected when the surfactant was degraded	–
